Data taken from US9427428B2, “Benzimidazole-imidazole derivatives” (Janssen Sciences Ireland UC, priority 2009, dated 2016).

Tests used:
[1] = system: HCV type 1b replicon (Huh-7 luc/neo cells); experiment: HCV replicon assay, stable transfection (Huh-Luc, luciferase); assay type: cell-based; settings: Hepatitis C virus, Huh-7, 72 h, three days incubation, average of all tests
Source text: The compounds of formula (I) were examined for inhibitory activity in the HCV replicon. This cellular assay is based on a bicistronic expression construct, as described by Lohmann et al. (Science (1999) 285: 110-113; Journal of Virology (2003) 77: 3007-3019) with modifications described by Krieger et al. (Journal of Virology (2001) 75: 4614-4624), and Lohmann et al. (Journal of Virology (2003) 77: 3007-3019) for genotype 1b and by Yi et al. (Journal of Virology (2004) 78: 7904-7915) for genotype 1a, in a multi-target screening strategy.
The method was as follows. The assay utilized the stably transfected cell line Huh-7 luc/neo (hereafter referred to as Huh-Luc). This cell line harbors an RNA encoding a bicistronic expression construct comprising the wild type NS3-NS5B regions of HCV type 1b translated from an Internal Ribosome Entry Site (IRES) from encephalomyocarditis virus (EMCV), preceded by a reporter portion (FfL-luciferase), and a selectable marker portion (neoR, neomycine phosphotransferase). The construct is flanked by 5′ and 3′ NTRs (non-translated regions) from HCV type 1b. Continued culture of the replicon cells in the presence of G418 (neoR) is dependent on the replication of the HCV RNA. The stably transfected replicon cells that replicate HCV RNA autonomously and to high levels, encoding inter alia luciferase, were used for screening the antiviral compounds.
The replicon cells were plated in 384 well plates in the presence of the test and control compounds which were added in various concentrations. Following an incubation of three days, HCV replication was measured by assaying luciferase activity (using standard luciferase assay substrates and reagents and a Perkin Elmer ViewLux™ ultraHTS microplate imager). Replicon cells in the control cultures have high luciferase expression in the absence of any inhibitor. The inhibitory activity of the compound was monitored on the Huh-Luc cells, enabling a dose-response curve for each test compound. EC50 values were then calculated, which represent the amount of compound required to decrease the level of detected luciferase activity by 50%, or more specifically, to reduce the ability of the genetically linked HCV replicon RNA to replicate.
Where a compound of formula (I) was tested more than once in the replicon assay, the average of all test results is given in this Table 2.

[2] = system: HCV genotype 1b Con1 replicon (Huh-7 lunet cells); experiment: HCV replicon assay, transient transfection, genotype 1b; assay type: cell-based; settings: Hepatitis C virus, 48 h, genotype 1b Con1, two days incubation, luciferase
Source text: (§1) In a transient set-up, a Huh-7 lunet hepatoma cell line was transiently transfected with an autonomously replicating RNA encoding a bi-cistronic expression construct. This construct comprises a firefly luciferase reporter gene preceding the NS3-NS5B subgenomic region of HCV (genotype 1a H77 or 1b Con1). Translation of the HCV subgenomic region is mediated by an internal ribosome entry site of encephalomyocarditis virus. The construct is furthermore flanked by 5′ and 3′ untranslated regions of HCV (genotype 1a H77 or 1b Con 1, respectively), which allow for replication of the RNA.
(§2) Cells were plated in 384 well plates in the presence of test and control compounds, which were added in various concentrations. Following an incubation of two days, replication of the HCV subgenomic replicon RNA was measured by assaying luciferase activity (using standard luciferase assay substrates and reagents and a Perkin Elmer ViewLux™ ultraHTS microplate imager). HCV subgenomic replicon containing cells in the control cultures have high luciferase expression in the absence of any inhibitor. The inhibitory activity of the compound was monitored, enabling a dose-response curve for each test compound. EC50 values were then calculated, which represent the amount of compound required to decrease the level of detected luciferase activity by 50%, or more specifically, to reduce the ability of the genetically linked HCV subgenomic RNA to replicate.
(§3) Where a compound of formula (I) was tested more than once in the transient replicon assay, the average of all test results is given in Table 3.

[3] = system: HCV genotype 1a H77 replicon (Huh-7 lunet cells); experiment: HCV replicon assay, transient transfection, genotype 1a; assay type: cell-based; settings: Hepatitis C virus, 48 h, genotype 1a H77, two days incubation, luciferase
Source text: as §1, §2, §3

[4] = Counterscreen MT4-LTR-Luc; assay type: cell-based; settings: human
Source text: (§4) Counterscreen cell lines included a Huh-7 hepatoma cell line containing a human cytomegalovirus major immediate-early promoter-Luc construct (Huh7-CMV-Luc) and an MT4 T-cell line containing a long terminal repeat-Luc reporter (MT4-LTR-Luc).

[5] = Counterscreen Huh7-CMV-Luc; assay type: cell-based; settings: human
Source text: as §4

[6] = system: HCV genotype 1b replicon NS5A L28T; experiment: Transient HCV 1b replicon, NS5A mutant L28T; assay type: cell-based; settings: Hepatitis C virus, read-out: EC50 L28T
Source text: as §1
(§5) In addition to the wild-type constructs, site-directed mutations were introduced into the transient HCV genotype 1b replicon in the gene encoding for the non-structural protein 5A (NS5A). More precisely, amino acid residues 28, 30, 31 and 93 in NS5A were independently altered.
as §2

[7] = system: HCV genotype 1b replicon NS5A R30H; experiment: Transient HCV 1b replicon, NS5A mutant R30H; assay type: cell-based; settings: Hepatitis C virus, read-out: EC50 R30H
Source text: as §1, §5, §2

[8] = system: HCV genotype 1b replicon NS5A L31F; experiment: Transient HCV 1b replicon, NS5A mutant L31F; assay type: cell-based; settings: Hepatitis C virus, read-out: EC50 L31F
Source text: as §1, §5, §2

[9] = system: HCV genotype 1b replicon NS5A L31M; experiment: Transient HCV 1b replicon, NS5A mutant L31M; assay type: cell-based; settings: Hepatitis C virus, read-out: EC50 L31M
Source text: as §1, §5, §2

[10] = system: HCV genotype 1b replicon NS5A L31V; experiment: Transient HCV 1b replicon, NS5A mutant L31V; assay type: cell-based; settings: Hepatitis C virus, read-out: EC50 L31V
Source text: as §1, §5, §2

[11] = system: HCV genotype 1b replicon NS5A Y93H; experiment: Transient HCV 1b replicon, NS5A mutant Y93H; assay type: cell-based; settings: Hepatitis C virus, read-out: EC50 Y93H
Source text: as §1, §5, §2

[12] = system: HCV genotype 1b replicon NS5A Y93C; experiment: Transient HCV 1b replicon, NS5A mutant Y93C; assay type: cell-based; settings: Hepatitis C virus, read-out: EC50 Y93C
Source text: as §1, §5, §2

[13] = Pharmacokinetic analysis after single oral administration, liver concentration; assay type: in vivo; settings: male Sprague-Dawley rats, 10 mg/kg oral, solution in PEG400
Experimental: Compounds were dosed orally as a solution in PEG400 to male Sprague-Dawley rats at a dose level of 10 mg/kg. At serial time points, after dosing, the animals were sacrificed and liver samples collected. All samples were analyzed using a qualified research LC-MS/MS method to determine the concentration of the tested compounds in liver. Non-compartmental analysis using the lin/log trapezoidal rule was performed using WinNonlin™ Professional (Version 5.2.1).

Structure (SMILES) | EC50 [1] [pM] | EC50 [2] [pM] | EC50 [3] [nM] | CC50 [4] [nM] | CC50 [5] [nM] | EC50 [6] [nM] | EC50 [7] [nM] | EC50 [8] [nM] | EC50 [9] [nM] | EC50 [10] [nM] | EC50 [11] [nM] | EC50 [12] [nM] | Liver AUC [13] [ng·h/g]
CC[C@H](C)[C@H](NC(=O)OC)C(=O)N1CCC[C@H]1c1ncc(-c2ccc3cc(-c4ccc5[nH]c([C@@H]6CCCN6C(=O)[C@@H](NC(=O)OC)C(C)C)nc5c4)ccc3c2)[nH]1 [Compound 16] | 3 | 3 | 0.098 | > 984 | > 984 | 0.151 | 0.07 | 0.017 | 0.093 | 0.411 | 0.343 | < 0.013 | 12630
CC[C@H](C)[C@H](NC(=O)OC)C(=O)N1CCC[C@H]1c1nc2ccc(-c3ccc4cc(-c5cnc([C@@H]6CCCN6C(=O)[C@@H](NC(=O)OC)C(C)C)[nH]5)ccc4c3)cc2[nH]1 [Compound 13] | 2 | 2 | 0.051 | > 984 | > 984 | 0.109 | 0.027 | < 0.013 | 0.053 | 0.141 | 0.215 | < 0.013 | 51330
COC(=O)N[C@H](C(=O)N1CCC[C@H]1c1ncc(-c2ccc3cc(-c4ccc5nc([C@@H]6CCCN6C(=O)[C@@H](NC(=O)OC)C(C)C)[nH]c5c4)ccc3c2)[nH]1)C(C)C [Compound 3] | 7 | 8 | 0.051 | 5820 | 7640 | 0.229 | 0.072 | 0.032 | 0.184 | 0.504 | 0.47 | 0.012 | 23157
COC(=O)N[C@H](C(=O)N1CCC[C@H]1c1ncc(-c2ccc3cc(-c4ccc5nc([C@@H]6CCCN6C(=O)[C@@H](NC(=O)OC)[C@@H](C)OC)[nH]c5c4)ccc3c2)[nH]1)C(C)C [Compound 9] | 7 | 7 | 0.03 | > 984 | > 984 | 0.081 | 0.045 | < 0.017 | 0.072 | 0.086 | 0.042 | < 0.013 | 6202
CC[C@H](C)[C@H](NC(=O)OC)C(=O)N1CCC[C@H]1c1ncc(-c2ccc3cc(-c4ccc5nc([C@@H]6CCCN6C(=O)[C@@H](NC(=O)OC)[C@@H](C)CC)[nH]c5c4)ccc3c2)[nH]1 [Compound 8] | 3 | 5 | 0.204 | > 984 | > 984 | 0.206 | 0.116 | 0.016 | 0.258 | 0.311 | 0.587 | < 0.013 | 50655
COC(=O)N[C@H](C(=O)N1CCC[C@H]1c1ncc(-c2ccc3cc(-c4ccc5nc([C@@H]6CCCN6C(=O)[C@@H](NC(=O)OC)[C@@H](C)OC)[nH]c5c4)ccc3c2)[nH]1)[C@@H](C)OC [Compound 4] | 12 | 16 | 0.033 | > 984 | > 984 | 0.052 | 0.056 | 0.02 | 0.052 | 0.048 | 0.034 | 0.013 | 1539
COC(=O)N[C@H](C(=O)N1CCC[C@H]1c1nc2ccc(-c3ccc4cc(-c5cnc([C@@H]6CCCN6C(=O)[C@@H](NC(=O)OC)[C@@H](C)OC)[nH]5)ccc4c3)cc2[nH]1)C(C)C [Compound 11] | 6 | 12 | 0.048 | > 984 | > 984 | 0.117 | 0.05 | 0.021 | 0.087 | 0.141 | 0.167 | < 0.013 | 7928
